Assay results as given in ChEMBL document CHEMBL5550186, “Exploring the Potential of Cyclic Peptidyl Antitumor Agents Derived from Natural Macrocyclic Peptide Phakellistatin 13” (J Med Chem, 2024).
Activity calls are given as the source filed them. The calls are words filed in the database; no cut-off is given here.

Columns and labels:
[1] = system: HeLa; test: Antiproliferative activity against human HeLa cells incubated for 48 hrs by MTT assay; assay type: functional, cell-based
[2] = system: 4T1; test: Antiproliferative activity against mouse 4T1 cells incubated for 48 hrs by MTT assay; assay type: functional, cell-based; details: 4T1, 48 h
[3] = Antiproliferative activity against mouse L929 cells incubated for 48 hrs by MTT assay; assay type: toxicity, cell-based
[4] = system: HepG2; test: Induction of morphological changes in human HepG2 cells assessed as cell shrinkage at 40 uM measured after 12 to 24 hrs by fluorescence inverted microscopic analysis; assay type: functional, cell-based; details: time 12-24 hrs
[5] = system: HepG2; test: Induction of morphological changes in human HepG2 cells assessed as appearance of round morphology at 40 uM measured after 12 to 24 hrs by fluorescence inverted microscopic analysis; assay type: functional, cell-based; details: time 12-24 hrs
[6] = system: HepG2; test: Induction of morphological changes in human HepG2 cells assessed as increase in cell death at 40 uM measured after 48 hrs by fluorescence inverted microscopic analysis; assay type: functional, cell-based
[7] = system: HepG2; test: Induction of apoptosis in human HepG2 cells assessed as viable cells at 5 uM incubated for 48 hrs by annexin V-FITC/PI staining based flow cytometry analysis (reference value: 99.3%); assay type: functional; details: read-out: Activity
[8] = system: HepG2; test: Induction of apoptosis in human HepG2 cells assessed as viable cells at 20 uM incubated for 48 hrs by annexin V-FITC/PI staining based flow cytometry analysis (reference value: 99.3%); assay type: functional; details: read-out: Activity
[9] = system: HepG2; test: Induction of apoptosis in human HepG2 cells assessed as early apoptotic cells at 5 uM incubated for 48 hrs by annexin V-FITC/PI staining based flow cytometry analysis (reference value: 0.50%); assay type: functional
[10] = system: HepG2; test: Induction of apoptosis in human HepG2 cells assessed as early apoptotic cells at 10 uM incubated for 48 hrs by annexin V-FITC/PI staining based flow cytometry analysis (reference value: 0.50%); assay type: functional
[11] = system: HepG2; test: Induction of apoptosis in human HepG2 cells assessed as late apoptotic cells at 10 uM incubated for 48 hrs by annexin V-FITC/PI staining based flow cytometry analysis (reference value: 0.16%); assay type: functional
[12] = system: HepG2; test: Induction of apoptosis in human HepG2 cells assessed as necrotic cells at 5 uM incubated for 48 hrs by annexin V-FITC/PI staining based flow cytometry analysis (reference value: 0%); assay type: functional
[13] = system: HepG2; test: Induction of cell cycle arrest in human HepG2 cells assessed as accumulation of cells at <2N phase at 10 uM incubated for 24 hrs by PI staining based flow cytometry analysis (reference value: 0.027%); assay type: functional
[14] = system: HepG2; test: Induction of cell cycle arrest in human HepG2 cells assessed as accumulation of cells at <2N phase at 10 uM incubated for 48 hrs by PI staining based flow cytometry analysis (reference value: 0.027%); assay type: functional
[15] = system: HepG2; test: Induction of cell cycle arrest in human HepG2 cells assessed as accumulation of cells at 2N phase at 10 uM incubated for 24 hrs by PI staining based flow cytometry analysis (reference value: 26.0%); assay type: functional
[16] = system: HepG2; test: Induction of cell cycle arrest in human HepG2 cells assessed as accumulation of cells at 2N phase at 5 uM incubated for 48 hrs by PI staining based flow cytometry analysis (reference value: 26.0%); assay type: functional
[17] = system: HepG2; test: Induction of cell cycle arrest in human HepG2 cells assessed as accumulation of cells at 2N phase at 10 uM incubated for 48 hrs by PI staining based flow cytometry analysis (reference value: 26.0%); assay type: functional
[18] = system: HepG2; test: Induction of cell cycle arrest in human HepG2 cells assessed as accumulation of cells at S phase at 10 uM incubated for 48 hrs by PI staining based flow cytometry analysis (reference value: 39.6%); assay type: functional
[19] = system: HepG2; test: Induction of cell cycle arrest in human HepG2 cells assessed as assessed as accumulation of cells at G2/M phase at 10 uM incubated for 12 hrs by PI staining based flow cytometry analysis (reference value: 6.38%); assay type: functional
[20] = system: HepG2; test: Induction of cell cycle arrest in human HepG2 cells assessed as accumulation of cells at G2/M phase at 10 uM incubated for 48 hrs by PI staining based flow cytometry analysis (reference value: 6.38%); assay type: functional
[21] = system: HepG2; test: Induction of cell cycle arrest in human HepG2 cells assessed as accumulation of cells at G2/M phase at 20 uM incubated for 48 hrs by PI staining based flow cytometry analysis (reference value: 6.38%); assay type: functional
[22] = system: HepG2; test: Induction of cell cycle arrest in human HepG2 cells assessed as accumulation of cells at >G2/M phase at 10 uM incubated for 24 hrs by PI staining based flow cytometry analysis (reference value: 28.0%); assay type: functional
[23] = system: HepG2; test: Induction of cell cycle arrest in human HepG2 cells assessed as accumulation of cells at >G2/M phase at 5 uM incubated for 48 hrs by PI staining based flow cytometry analysis (reference value: 28.0%); assay type: functional
[24] = system: HepG2; test: Induction of cell cycle arrest in human HepG2 cells assessed as accumulation of cells at >G2/M phase at 10 uM incubated for 48 hrs by PI staining based flow cytometry analysis (reference value: 28.0%); assay type: functional
[25] = system: HepG2; test: Downregulation of MDM2 level in human HepG2 cells at 5 to 20 uM measured after 48 hrs by Western blot analysis; assay type: functional, cell-based; details: dose 5-20 µM
[26] = system: Cell membrane; test: Induction of mitochondrial membrane potential loss in human HepG2 cells assessed as decrease in fluorescence at 10 uM measured after 12 hrs by Rhodamine 123 staining based flow cytometry (reference value: 66.8%); assay type: cell membranes; design: scale not given: the % may be the effect or the level left
[27] = system: HepG2; test: Induction of apoptosis in human HepG2 cells assessed as increase in intracellular calcium level at 10 uM measured after 24 hrs by fluo-3AM dye based flow cytometry analysis; assay type: functional, cell-based
[28] = system: HepG2; test: Induction of apoptosis in human HepG2 cells assessed as increase in number of apoptotic cells at 5 to 10 uM measured after 24 hrs by annexin V-mCherry staining based fluorescence microscopic analysis; assay type: functional, cell-based; details: dose 5-10 µM
[29] = molecular target: Voltage-gated inwardly rectifying potassium channel KCNH2 (Homo sapiens, UniProt Q12809); test: Inhibition of human ERG; assay type: toxicity
[30] = Toxicity in Balb/c mouse assessed as effect on spleen at 6 mg/kg, iv measured after 14 days by H and E staining based analysis; assay type: organism-based; details: in vivo, 336 h, time 14 day
[31] = Toxicity in Balb/c mouse assessed as effect on lung at 6 mg/kg, iv measured after 14 days by H and E staining based analysis; assay type: organism-based; details: in vivo, 336 h, time 14 day
[32] = Toxicity in Balb/c mouse assessed as effect on kidney at 6 mg/kg, iv measured after 14 days by H and E staining based analysis; assay type: organism-based; details: in vivo, 336 h, time 14 day
[33] = Upregulation of SESN2 expression level in human HepG2 cells assessed as fold change by KEGG enrichment analysis; assay type: functional
[34] = Upregulation of ATF4 expression level in human HepG2 cells assessed as fold change by KEGG enrichment analysis; assay type: functional
[35] = Effect on MAML3 expression level in human HepG2 cells assessed as fold change by KEGG enrichment analysis; assay type: functional
[36] = Apparent permeability of compound; assay type: ADME; details: not told
[37] = in vitro; details: human, Caco-2
Description: Apparent permeability of compound in human Caco-2 cells at 10 uM measured upto 120 mins by LC-MS/MS analysis

Chain of Voltage-gated inwardly rectifying potassium channel KCNH2 (Q12809 whole entry): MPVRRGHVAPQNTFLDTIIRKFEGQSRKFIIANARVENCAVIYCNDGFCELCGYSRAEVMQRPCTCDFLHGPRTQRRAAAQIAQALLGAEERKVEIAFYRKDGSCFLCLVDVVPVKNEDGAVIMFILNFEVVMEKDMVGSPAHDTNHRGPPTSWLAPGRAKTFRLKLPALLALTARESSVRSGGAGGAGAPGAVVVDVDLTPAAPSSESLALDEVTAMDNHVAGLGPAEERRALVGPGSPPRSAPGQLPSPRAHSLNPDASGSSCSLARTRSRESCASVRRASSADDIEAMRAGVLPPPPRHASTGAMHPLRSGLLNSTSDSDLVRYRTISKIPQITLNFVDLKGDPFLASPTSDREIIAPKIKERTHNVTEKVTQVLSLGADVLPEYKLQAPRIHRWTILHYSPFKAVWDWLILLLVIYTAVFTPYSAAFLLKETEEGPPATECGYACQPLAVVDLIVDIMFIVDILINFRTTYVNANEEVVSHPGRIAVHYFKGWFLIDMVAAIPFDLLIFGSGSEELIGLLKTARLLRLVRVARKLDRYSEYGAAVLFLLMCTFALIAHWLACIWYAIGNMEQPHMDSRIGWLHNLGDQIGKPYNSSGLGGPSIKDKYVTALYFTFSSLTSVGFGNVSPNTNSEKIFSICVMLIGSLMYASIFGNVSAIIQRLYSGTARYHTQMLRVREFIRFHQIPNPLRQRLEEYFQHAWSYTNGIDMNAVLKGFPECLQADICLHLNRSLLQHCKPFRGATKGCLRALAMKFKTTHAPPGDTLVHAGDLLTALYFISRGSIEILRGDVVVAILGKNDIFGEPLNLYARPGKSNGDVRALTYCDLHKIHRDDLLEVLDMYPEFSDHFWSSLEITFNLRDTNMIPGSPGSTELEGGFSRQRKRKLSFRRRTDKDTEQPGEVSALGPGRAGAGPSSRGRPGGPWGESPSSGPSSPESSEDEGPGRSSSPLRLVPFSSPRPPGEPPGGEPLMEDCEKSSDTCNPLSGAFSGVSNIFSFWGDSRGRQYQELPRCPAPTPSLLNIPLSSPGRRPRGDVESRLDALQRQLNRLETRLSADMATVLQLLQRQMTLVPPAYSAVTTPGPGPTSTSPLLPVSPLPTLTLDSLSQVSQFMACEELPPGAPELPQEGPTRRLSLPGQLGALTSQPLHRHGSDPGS

CC(C)C[C@H]1NC(=O)[C@H]([C@@H](C)OCc2ccccc2)NC(=O)[C@H]2CCCN2C(=O)CN2C(=O)c3ccccc3[C@@]2(O)CN(Cc2ccccc2)C(=O)[C@H](Cc2ccccc2)NC(=O)[C@H]2CCCN2C(=O)[C@H](Cc2c[nH]c3ccccc23)NC1=O
IC50 [1]: 16.9 µM | IC50 [2]: 38.5 µM | IC50 at 48 h [3]: > 100 µM | Activity [4]: Active | Activity [5]: Active | Activity [6]: Active | viability at 5 µM [7]: 80.8% | viability at 20 µM [8]: 52% | Activity [9]: 16.8% | Activity [10]: 27.3% | Activity [11]: 4.57% | Activity [12]: 0% | Activity [13]: 35.9% | Activity [14]: 20.2% | Activity [15]: 23.3% | Activity [16]: 28.7% | Activity [17]: 33.5% | Activity [18]: 23.3% | Activity [19]: 12.4% | Activity [20]: 23% | Activity [21]: 37.1% | Activity [22]: 13.5% | Activity [23]: 2.76% | Activity [24]: 0% | Activity [25]: Active | Activity [26]: 55.6% | Activity [27]: Active | Activity [28]: Active | inhibition (INH) [29]: Active | Activity [30]: Non-Toxic | Activity [31]: Non-Toxic | Activity [32]: Non-Toxic | fold change (FC) [33]: 2.86 | fold change (FC) [34]: 1.43 | fold change (FC) [35]: -1.198 | Papp [36]: 0.416 ×10⁻⁶ cm/s | Papp at 2 h, 10 µM [37]: > 20 ×10⁻⁶ cm/s
